Results published in patent US7585859B2, “PDE4B inhibitors and uses therefor” (Plexxikon, Inc., priority 2004, dated 2009).
Where two headings read alike, the source gives them in different places.

Tests used:
[1] = target: T1, PDE4B: The catalytic domain of human PDE4B from S152-S528 (Homo sapiens, UniProt Q07343); experiment: PDE4 IC50 determination by Scintillation Proximity Assay, PDE4B; format: biochemical
T1 construct: His6 (N); thrombin cleavage site (N); made in house; host or cells: E. coli
Outline: (§1)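 Hydrolysis of [^3H]cAMP measured by SPA with yttrium silicate beads, which bind the [^3H]AMP product strongly and cAMP weakly. Enzyme at 80 ng/ml for PDE4B, 4 ng/ml for PDE4D; 30 min at 30°.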

PDE4D = target: T2, PDE4D (Homo sapiens, UniProt Q08499); experiment: PDE4 IC50 determination by Scintillation Proximity Assay, PDE4D; format: biochemical
T2 construct: PDE4D: The catalytic domain of human PDE4B from S3 16-V692; His6 (N); thrombin cleavage site (N); made in house; host or cells: E. coli
Outline: as §1

[2] = second part of Table 2B (2-23 to 2-103), column 3, column is PDE4B in first part, read-out: IC 50 vs. indicated assay h TNFα
[3] = second part of Table 2B (2-23 to 2-103), column 5, column is PDE4D in first part, read-out: IC 50 vs. indicated assay h TNFα

T2 sequence (Q08499 380-756): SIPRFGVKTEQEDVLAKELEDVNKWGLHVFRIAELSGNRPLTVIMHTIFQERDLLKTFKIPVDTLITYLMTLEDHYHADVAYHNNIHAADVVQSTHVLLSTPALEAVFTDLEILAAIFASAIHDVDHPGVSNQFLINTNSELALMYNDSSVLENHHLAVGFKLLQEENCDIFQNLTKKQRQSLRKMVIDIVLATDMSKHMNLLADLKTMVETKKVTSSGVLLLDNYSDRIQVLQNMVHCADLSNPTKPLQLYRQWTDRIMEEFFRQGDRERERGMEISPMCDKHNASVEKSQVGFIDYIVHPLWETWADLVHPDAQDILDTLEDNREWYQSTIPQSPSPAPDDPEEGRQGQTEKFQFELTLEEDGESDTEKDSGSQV
T1 sequence (Q07343 with tags, fused parts or gaps): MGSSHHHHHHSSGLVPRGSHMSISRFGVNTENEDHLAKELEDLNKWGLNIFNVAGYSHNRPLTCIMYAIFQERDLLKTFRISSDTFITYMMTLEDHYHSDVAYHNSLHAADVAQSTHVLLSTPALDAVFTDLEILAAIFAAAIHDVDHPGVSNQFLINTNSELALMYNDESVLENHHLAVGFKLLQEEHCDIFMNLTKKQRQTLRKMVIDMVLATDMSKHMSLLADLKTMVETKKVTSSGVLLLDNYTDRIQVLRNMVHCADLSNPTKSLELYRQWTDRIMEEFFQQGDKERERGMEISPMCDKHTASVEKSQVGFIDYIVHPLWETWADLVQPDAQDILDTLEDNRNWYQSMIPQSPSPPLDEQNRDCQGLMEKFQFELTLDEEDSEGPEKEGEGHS

Row | SMILES | IC50 [1, 2] [µM] | IC50 (PDE4D; [3]) [µM] | IC50 [1] [µM] | IC50 (PDE4D) [µM]
1 | N#Cc1cccc(Nc2nc(N)c(C(=O)c3cccc(Cl)c3)s2)c1 [Compound 2-52, 3-[4-Amino-5-(3-chloro-benzoyl)-thiazol-2-ylamino]-benzonitrile] | < 10 | < 10 |  | 
2 | Nc1nc(Nc2ccc(Oc3ccccc3)cc2)sc1C(=O)c1cccc(Cl)c1 [Compound 2-53, [4-Amino-2-(4-phenoxy-phenylamino)-thiazol-5-yl]-(3-chloro-phenyl)-methanone] | < 10 | < 10 |  | 
3 | Nc1nc(Nc2ccccc2F)sc1C(=O)c1cccc(C(F)(F)F)c1 [Compound 2-54, [4-Amino-2-(2-fluoro-phenylamino)-thiazol-5-yl]-(3-trifluoromethyl-phenyl)-methanone] | < 10 | < 10 |  | 
4 | COc1ccc(Nc2nc(N)c(C(=O)c3cccc(C(F)(F)F)c3)s2)cc1 [Compound 2-55, [4-Amino-2-(4-methoxy-phenylamino)-thiazol-5-yl]-(3-trifluoromethyl-phenyl)-methanone] | < 10 | < 10 |  | 
5 | N#Cc1cccc(Nc2nc(N)c(C(=O)c3cccc(C(F)(F)F)c3)s2)c1 [Compound 2-56, 3-[4-Amino-5-(3-trifluoromethyl-benzoyl)-thiazol-2-ylamino]-benzonitrile] | < 10 | < 10 |  | 
6 | Nc1nc(Nc2ccc(Oc3ccccc3)cc2)sc1C(=O)c1cccc(C(F)(F)F)c1 [Compound 2-57, [4-Amino-2-(4-phenoxy-phenylamino)-thiazol-5-yl]-(3-trifluoromethyl-phenyl)-methanone] | < 10 | > 10 |  | 
7 | Nc1nc(Nc2ccccc2F)sc1C(=O)c1ccc(OC(F)F)cc1 [Compound 2-58, [4-Amino-2-(2-fluoro-phenylamino)-thiazol-5-yl]-(4-difluoromethoxy-phenyl)-methanone] | < 10 | < 10 |  | 
8 | COc1ccc(Nc2nc(N)c(C(=O)c3ccc(OC(F)F)cc3)s2)cc1 [Compound 2-59, [4-Amino-2-(4-methoxy-phenylamino)-thiazol-5-yl]-(4-difluoromethoxy-phenyl)-methanone] | < 10 | < 10 |  | 
9 | N#Cc1cccc(Nc2nc(N)c(C(=O)c3ccc(OC(F)F)cc3)s2)c1 [Compound 2-60, 3-[4-Amino-5-(4-difluoromethoxy-benzoyl)-thiazol-2-ylamino]-benzonitrile] | < 10 | > 10 |  | 
10 | COc1cccc(C(=O)c2sc(Nc3ccccc3F)nc2N)c1 [Compound 2-62, [4-Amino-2-(2-fluoro-phenylamino)-thiazol-5-yl]-(3-methoxy-phenyl)-methanone] | < 10 | < 10 |  | 
11 | COc1ccc(Nc2nc(N)c(C(=O)c3cccc(OC)c3)s2)cc1 [Compound 2-63, [4-Amino-2-(4-methoxy-phenylamino)-thiazol-5-yl]-(3-methoxy-phenyl)-methanone] | < 10 | < 10 |  | 
12 | COc1cccc(C(=O)c2sc(Nc3ccc(Oc4ccccc4)cc3)nc2N)c1 [Compound 2-65, [4-Amino-2-(4-phenoxy-phenylamino)-thiazol-5-yl]-(3-methoxy-phenyl)-methanone] | < 10 | < 10 |  | 
13 | Nc1nc(Nc2ccc(Oc3ccccc3)cc2)sc1C(=O)c1ccccc1Cl [Compound 2-66, [4-Amino-2-(4-phenoxy-phenylamino)-thiazol-5-yl]-(2-chloro-phenyl)-methanone] | < 10 | > 10 |  | 
14 | Nc1nc(NCc2ccccc2)sc1C(=O)c1ccccc1 [Compound 2-68, (4-Amino-2-benzylamino-thiazol-5-yl)-phenyl-methanone] | < 10 | < 10 |  | 
15 | COc1cccc(C(=O)c2sc(NC(C)C)nc2N)c1 [Compound 2-69, (4-Amino-2-isopropylamino-thiazol-5-yl)-(3-methoxy-phenyl)-methanone] | < 10 | > 10 |  | 
16 | Nc1nc(Nc2cccc3ccccc23)sc1C(=O)c1ccccc1 [Compound 2-70, [4-Amino-2-(naphthalen-1-ylamino)-thiazol-5-yl]-phenyl-methanone] | < 10 | < 10 |  | 
17 | Nc1nc(Nc2cccnc2)sc1C(=O)c1ccccc1 [Compound 2-71, [4-Amino-2-(pyridin-3-ylamino)-thiazol-5-yl]-phenyl-methanone] | < 10 | < 10 |  | 
18 | COc1ccc(C(=O)c2sc(Nc3cccnc3)nc2N)cc1 [Compound 2-72, [4-Amino-2-(pyridin-3-ylamino)-thiazol-5-yl]-(4-methoxy-phenyl)-methanone] | < 10 | < 10 |  | 
19 | Nc1nc(Nc2ccccn2)sc1C(=O)c1ccccc1 [Compound 2-73, [4-Amino-2-(pyridin-2-ylamino)-thiazol-5-yl]-phenyl-methanone] | < 10 | > 10 |  | 
20 | Nc1nc(Nc2ccc(Oc3ccccc3)nc2)sc1C(=O)c1ccccc1 [Compound 2-74, [4-Amino-2-(6-phenoxy-pyridin-3-ylamino)-thiazol-5-yl]-phenyl-methanone] | > 10 | < 10 |  | 

Row | SMILES | IC50 [1, 2] [µM] | IC50 (PDE4D; [3]) [µM] | IC50 [1] [µM] | IC50 (PDE4D) [µM]
21 | Nc1nc(NC2CCCC2)sc1C(=O)c1ccccc1Cl [Compound 2-75, (4-Amino-2-cyclopentylamino-thiazol-5-yl)-(2-chloro-phenyl)-methanone] | > 10 | > 10 |  | 
22 | Nc1nc(NC2CC2)sc1C(=O)c1ccc(Oc2ccccc2)cc1 [Compound 2-77, (4-Amino-2-cyclopropylamino-thiazol-5-yl)-(4-phenoxy-phenyl)-methanone] | < 10 | < 10 |  | 
23 | COc1ccc(C(=O)c2sc(NC3CCCC3)nc2N)cc1 [Compound 2-78, (4-Amino-2-cyclopentylamino-thiazol-5-yl)-(4-methoxy-phenyl)-methanone] |  |  | < 10 | < 10
24 | COc1ccc(C(=O)c2sc(NC3CC3)nc2N)cc1 [Compound 2-79, (4-Amino-2-cyclopropylamino-thiazol-5-yl)-(4-methoxy-phenyl)-methanone] | < 10 | < 10 |  | 
25 | Nc1nc(NC2CC2)sc1C(=O)c1cccc(Cl)c1 [Compound 2-81, (4-Amino-2-cyclopropylamino-thiazol-5-yl)-(3-chloro-phenyl)-methanone] | < 10 | < 10 |  | 
26 | Nc1nc(NC2CCCC2)sc1C(=O)c1cccc(C(F)(F)F)c1 [Compound 2-82, (4-Amino-2-cyclopentylamino-thiazol-5-yl)-(3-trifluoromethyl-phenyl)-methanone] | < 10 | < 10 |  | 
27 | Nc1nc(NC2CCCC2)sc1C(=O)c1ccc(OC(F)F)cc1 [Compound 2-84, (4-Amino-2-cyclopentylamino-thiazol-5-yl)-(4-difluoromethoxy-phenyl)-methanone] | < 10 | < 10 |  | 
28 | Nc1nc(NC2CC2)sc1C(=O)c1ccc(OC(F)F)cc1 [Compound 2-85, (4-Amino-2-thiazol-5-yl)-(4-difluoromethoxy-phenyl)-methanone] | < 10 | > 10 |  | 
29 | COc1cccc(C(=O)c2sc(NC3CCCC3)nc2N)c1 [Compound 2-86, (4-Amino-2-cyclopentylamino-thiazol-5-yl)-(3-methoxy-phenyl)-methanone] | < 10 | < 10 |  | 
30 | COc1cccc(C(=O)c2sc(NC3CC3)nc2N)c1 [Compound 2-87, (4-Amino-2-cyclopropylamino-thiazol-5-yl)-(3-methoxy-phenyl)-methanone] | < 10 | < 10 |  | 
31 | Nc1nc(NC2CC2)sc1C(=O)c1cccc(C(F)(F)F)c1 [Compound 2-88, (4-Amino-2-cyclopropylamino-thiazol-5-yl)-(3-trifluoromethyl-phenyl)-methanone] | < 10 | < 10 |  | 
32 | Nc1nc(Nc2ccccc2)sc1C(=O)C1CCCC1 [Compound 2-89, (4-Amino-2-phenylamino-thiazol-5-yl)-cyclopentyl-methanone] | < 10 | < 10 |  | 
33 | Nc1nc(Nc2ccccc2)sc1C(=O)C1CCCCC1 [Compound 2-90, (4-Amino-2-phenylamino-thiazol-5-yl)-cyclohexyl-methanone] | < 10 | < 10 |  | 
34 | Nc1nc(Nc2ccc(Cl)cc2)sc1C(=O)C1CCCCC1 [Compound 2-91, [4-Amino-2-(4-chloro-phenylamino)-thiazol-5-yl]-cyclohexyl-methanone] | < 10 | > 10 |  | 
35 | Nc1nc(Nc2c(Cl)cccc2Cl)sc1C(=O)CC1CCCC1 [Compound 2-94, 1-[4-Amino-2-(2,6-dichloro-phenylamino)-thiazol-5-yl]-2-cyclopentyl-ethanone] | > 10 | > 10 |  | 
36 | Nc1nc(Nc2ccccc2)sc1C(=O)C1CC1 [Compound 2-95, (4-Amino-2-phenylamino-thiazol-5-yl)-cyclopropyl-methanone] | < 10 | > 10 |  | 
37 | Nc1nc(Nc2c(Cl)cccc2Cl)sc1C(=O)C1CC1 [Compound 2-96, [4-Amino-2-(2,6-dichloro-phenylamino)-thiazol-5-yl]-cyclopropyl-methanone] | < 10 | < 10 |  | 
38 | Nc1nc(Nc2ccc(Oc3ccccc3)cc2)sc1C(=O)C1CC1 [Compound 2-97, [4-Amino-2-(4-phenoxy-phenylamino)-thiazol-5-yl]-cyclopropyl-methanone] | < 10 | < 10 |  | 
39 | Nc1nc(Nc2ccccc2F)sc1C(=O)C1CCCC1 [Compound 2-98, [4-Amino-2-(2-fluoro-phenylamino)-thiazol-5-yl]-cyclopentyl-methanone] | < 10 | < 10 |  | 
